pEC50, pIC50: −log10 of the molar value. The source made the active and inactive calls. The calls are words filed in the database; no cut-off is given here.
Columns and labels:
[1] = Stability in human serum at 37 degC after 3 days; format: ADME, cell-free; conditions: read-out: Stability
Lytechinus pictus = test: Agonist activity at ryanodine receptor in sea urchin egg homogenates assessed as effect on calcium release at 30 uM by fluorimetry; format: functional, tissue-based
[2] = Antagonist activity at ryanodine receptor in sea urchin egg homogenates assessed as decrease in cADPcR-induced calcium release by fluorimetry; format: functional, tissue-based, Lytechinus pictus
[3] = Agonist activity at ryanodine receptor in sea urchin egg homogenates assessed as effect on calcium release by fluorimetry; format: functional, Lytechinus pictus

SMILES	remaining at 72 h [1] [%]	Activity (Lytechinus pictus)	pIC50 [2]	pEC50 [3]
[N-]=[N+]=NCC[C@@H]1OP(=O)(O)OP(=O)([O-])OC[C@H]2O[C@H]([C@H](O)[C@@H]2O)n2cnc3c(N)[n+](cnc32)[C@@H]2C[C@H]1[C@@H](O)[C@H]2O	89	inactive	4.72	
NCC[C@@H]1OP(=O)([O-])OP(=O)(O)OC[C@H]2O[C@H]([C@H](O)[C@@H]2O)n2cnc3c(N)[n+](cnc32)[C@@H]2C[C@H]1[C@@H](O)[C@H]2O		inactive	3.92	
Nc1c2ncn3c2nc[n+]1[C@@H]1O[C@H](COP(=O)([O-])OP(=O)(O)OC[C@H]2O[C@@H]3[C@H](O)[C@@H]2O)[C@@H](O)[C@H]1O				6.68
[N-]=[N+]=NCC[C@H]1OP(=O)([O-])OP(=O)(O)OC[C@H]2O[C@H]([C@H](O)[C@@H]2O)n2cnc3c(N)[n+](cnc32)[C@@H]2C[C@H]1[C@@H](O)[C@H]2O		inactive	4.85	
Nc1c2ncn3c2nc[n+]1[C@@H]1C[C@H](COP(=O)([O-])OP(=O)(O)OC[C@H]2O[C@@H]3[C@H](O)[C@@H]2O)[C@@H](O)[C@H]1O				7.10
NCC[C@H]1OP(=O)([O-])OP(=O)(O)OC[C@H]2O[C@H]([C@H](O)[C@@H]2O)n2cnc3c(N)[n+](cnc32)[C@@H]2C[C@H]1[C@@H](O)[C@H]2O		inactive	4.14	
